Data taken from patent publication US20260144769A1, “4-PHENYLBUTYRATE RESTORED GABA UPTAKE AND REDUCED SEIZURES IN SLC6A1 VARIANT-MEDIATED DISORDERS” (Vanderbilt University, priority 2022, published 2026).

How the values were obtained:
Experiment in all cases: 3H GABA uptake, corrected iPSC astrocytes transfected with GAT-1^YFP cDNA
Assay type in all cases: cell-based
GAT-1(W495X) = molecular target: T1, GAT-1(W495X) (Rattus norvegicus, UniProt P23978); details: 2 mM PBA, 24 hrs
T1 construct: The coding region of rGAT-1 was inserted into pEYFP-C1 (Clontech, Palo Alto, CA); expressed in transfected cells; host or cells: human astrocytes differentiated from CRISPR-corrected patient iPSCs
Experimental: (§1) Live images of human neural progenitor cells (NPCs), astrocytes and GABAergic inhibitory neurons differentiated from the human induced pluripotent stem cells (iPSCs) on the day of experiment. […] The DMSO treated corrected or patient cells was taken as 1. […] GABA flux was measured after 30 min transport at room temperature. The influx of GABA, expressed in pmol/μg protein/min, was averaged from duplicates for each condition and for each transfection. The average counting was DMSO treated condition taken as 1. In FIG. 5B, FIG. 5D and FIG. 5F, 966 stands for CI-966 (50 μM) and 711 stands for NNC-711 (35 μM) that was applied 30 min to the astrocytes transfected with the wildtype GAT-1^YFP before preincubation and removed during preincubation. In FIGS. 5B and D, ***p<0.001 vs. corrected DMSO treated. § § <0.01, § § § p<0.001 vs. patient DMSO treated. […] In FIGS. 5B-E, n=4-8 batches of cells. In FIG. 5F, n=4-5 different transfections). Unpaired t test was used for FIG. 5C and FIG. 5E. One-way analysis of variance followed by a Dunnett post hoc multiple comparison test was used in FIG. 5B, FIG. 5D and FIG. 5F. Values were expressed as mean±S.E.M.).
(§2) The plasmid cDNA encoding enhanced yellow fluorescent protein (EYFP)-tagged rat GAT-1 has been previously described. The coding region of rGAT-1 was inserted into pEYFP-C1 (Clontech, Palo Alto, CA). QuikChange Site-directed Mutagenesis kit was utilized to introduce the GAT-1 variants into a wildtype GAT-1 plasmid. The product was then amplified via polymerase chain reaction, transformed using DH5a competent cells, and plated. A clone was chosen and grown overnight. All the GAT-1 variants were confirmed by DNA sequencing. Both the wildtype and the variant cDNAs were prepared with Qiagen Maxiprep kit.
(§3) Astrocytes were differentiated starting from day 5 of NPC passage 1 with the astrocyte culture medium from Sciencell (catalog 1801) following the protocol as previously described. The cell culture medium was refreshed every other day and the cells were passaged at ˜70% confluency. About 1.5×10^5 cells were seeded in each 35 mm dish or each well in 6-well plate when passaging. The differentiation was continuous until the day 30 and all the astrocytes used in experiments in this study were at day 30 after differentiation.
(§4) Briefly, cells were cultured in […] dishes for 3 days before the GABA uptake experiment in DMEM with 10% fetal bovine serum and 1% penicillin/streptomycin. The cells were then transfected with equal amounts of the wildtype or the mutant GAT-1 cDNAs (1 μg) for each condition at 24 hrs or 48 hrs after plating. GABA uptake assay was carried out 48 hrs after transfection. The cells were incubated with preincubation solution for 15 min and then incubated with preincubation solution containing 1 μci/mL 3H GABA and 10 μM unlabeled GABA for 30 min at room temperature. After washing, the cells were lysed with 0.25 N NaOH for 1 hr. Glacial acetic acid was added, and lysates were then determined on a liquid scintillator with QuantaSmart. The flux of GABA (pmol/μg/min) was averaged with at least triplets for each condition at each transfection. The average counting was taken as n=1. The untransfected condition was taken as a baseline that was subtracted from both the wildtype and the mutant conditions. The pmol/μg/min in the mutant was then normalized to the wildtype from each experiment, which was arbitrarily taken as 100%. The protocols for GABA reuptake assay in cultured mouse astrocytes, neuron or iPSC derived cells were modified from the GABA uptake protocol on HEK 293T cells. GAT-1 inhibitors CL-966 and NNC-711 were applied each time to make sure the radioactive counts were specific.
(§5) The working solution was stored at 4° C.
(§6) Wildtype or the mutant GAT-1^YFP were transfected (1 μg cDNAs per 35 mm^2 dishes) in the astrocytes derived from the corrected iPSCs for 48 hrs. […]

wildtype GAT-1 = molecular target: T2, wildtype GAT-1 (Rattus norvegicus, UniProt P23978); details: corrected astrocytes transfected with wt; 2 mM PBA, 24 hrs
T2 construct: The coding region of rGAT-1 was inserted into pEYFP-C1 (Clontech, Palo Alto, CA); expressed in transfected cells; host or cells: HEK293T cells (A1); astrocytes from corrected human iPSCs (A21)
Experimental: as §1, §2, §3, §4, §5, §6

GAT-1 A288V = molecular target: T3, GAT-1 A288V (Rattus norvegicus, UniProt P23978, A288V); details: 2 mM PBA, 24 hrs
T3 construct: The coding region of rGAT-1 was inserted into pEYFP-C1 (Clontech, Palo Alto, CA); expressed in transfected cells; host or cells: HEK293T cells (A4); astrocytes from corrected human iPSCs (A24)
Experimental: as §1, §2, §3, §4, §5, §6

GAT-1 V125M = molecular target: T4, GAT-1 V125M (Rattus norvegicus, UniProt P23978, V125M); details: 2 mM PBA, 24 hrs
T4 construct: The coding region of rGAT-1 was inserted into pEYFP-C1 (Clontech, Palo Alto, CA); expressed in transfected cells; host or cells: HEK293T cells (A3); astrocytes from corrected human iPSCs (A23)
Experimental: as §1, §2, §3, §4, §5, §6

GAT-1 G362R = molecular target: T5, GAT-1 G362R (Rattus norvegicus, UniProt P23978, G362R); details: 2 mM PBA, 24 hrs
T5 construct: The coding region of rGAT-1 was inserted into pEYFP-C1 (Clontech, Palo Alto, CA); expressed in transfected cells; host or cells: human astrocytes differentiated from CRISPR-corrected patient iPSCs
Experimental: as §1, §2, §3, §4, §5, §6

GAT-1 D410E = molecular target: T6, GAT-1 D410E (Rattus norvegicus, UniProt P23978, D410E); details: 2 mM PBA, 24 hrs
T6 construct: The coding region of rGAT-1 was inserted into pEYFP-C1 (Clontech, Palo Alto, CA); expressed in transfected cells; host or cells: HEK293T cells (A7); astrocytes from corrected human iPSCs (A27)
Experimental: as §1, §2, §3, §4, §5, §6

GABA uptake normalized to its DMSO treated (GAT-1(W495X)): 1.45±0.04
GABA uptake normalized to its DMSO treated (wildtype GAT-1): 1.188±0.075
GABA uptake normalized to its DMSO treated (GAT-1 A288V): 1.204±0.031
GABA uptake normalized to its DMSO treated (GAT-1 V125M): 1.285±0.018
GABA uptake normalized to its DMSO treated (GAT-1 G362R): 1.25±0.023
GABA uptake normalized to its DMSO treated (GAT-1 D410E): 1.21±0.022
Compound: O=C(O)CCCc1ccccc1 [PBA, 4-phenylbutyric acid]
